From patent US12139492B2 (Endotarget Inc., priority 2021, dated 2024)

Columns and labels:
Type in all cases: cell-based
Mino cells = assay: Antiproliferative effect, MTS cell viability assay, Mino cells; conditions: Homo sapiens, MINO, Mino mantle cell lymphoma cells; read-out: IC50 (anti-proliferation) Mino cells
How it was run: (§1)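 Steps: seed B-cell lymphoma line; add compound at 0, 0.001, 0.01, 0.1, 1 or 10 μM; incubate 72 h; add MTS and read reduced tetrazolium (formazan) absorbance at 490 nm.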

BTK = BTK (Homo sapiens, UniProt Q06187); assay: BTK degradation, DC50 and Dmax of Table 1 (cell line not given); design: endogenous in cells; conditions: for DC50: concentration giving 50% reduction of BTK expression level
Sequence of BTK (Q06187 whole entry): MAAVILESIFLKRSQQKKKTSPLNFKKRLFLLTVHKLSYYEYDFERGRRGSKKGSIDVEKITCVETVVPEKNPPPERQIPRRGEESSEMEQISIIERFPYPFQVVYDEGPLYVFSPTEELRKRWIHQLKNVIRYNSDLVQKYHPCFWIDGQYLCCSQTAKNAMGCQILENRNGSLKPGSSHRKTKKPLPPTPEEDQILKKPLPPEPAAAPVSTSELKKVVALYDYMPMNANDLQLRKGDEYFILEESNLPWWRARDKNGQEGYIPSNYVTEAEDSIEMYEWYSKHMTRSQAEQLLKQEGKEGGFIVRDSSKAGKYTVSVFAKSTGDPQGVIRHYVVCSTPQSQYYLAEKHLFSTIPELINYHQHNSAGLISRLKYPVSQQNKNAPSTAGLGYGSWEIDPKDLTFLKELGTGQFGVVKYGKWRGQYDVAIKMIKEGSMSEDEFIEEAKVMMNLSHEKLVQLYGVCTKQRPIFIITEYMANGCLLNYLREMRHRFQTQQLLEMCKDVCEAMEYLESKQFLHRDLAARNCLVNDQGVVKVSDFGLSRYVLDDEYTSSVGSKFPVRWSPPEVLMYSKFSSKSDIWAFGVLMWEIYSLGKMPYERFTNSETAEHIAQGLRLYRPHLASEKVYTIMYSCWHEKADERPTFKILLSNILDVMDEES

JeKo-1 cells = assay: Antiproliferative effect, MTS cell viability assay, JeKo-1 cells; conditions: Homo sapiens; JeKo-1 mantle cell lymphoma cells; read-out: IC50 (anti-proliferation) JeKO-1 cells
How it was run: as §1

Row | SMILES | Dmax (BTK) | DC50 (BTK) | IC50 (Mino cells) | IC50 (JeKo-1 cells)
1 | Nc1ncnc2c1c(-c1ccc(Oc3ccccc3)cc1)nn2C1CCN(C(=O)N2CCN(c3ccc4c(c3)CN(C3CCC(=O)NC3=O)C4=O)CC2)CC1 (stereo not drawn) [Compound 76, 3-(5-(4-(4-(4-amino-3-(4-phenoxyphenyl)-1H-pyrazolo[3,4-d]pyrimidin-1-yl)piperidine-1-carbonyl)piperazin-1-yl)-1-oxoisoindolin-2-yl)piperidine-2,6-dione] | > 50% | > 50 nM | > 10 µM | > 10 µM
2 | Nc1ncnc2c1c(-c1ccc(Oc3ccccc3)cc1)nn2C1CCN(C(=O)N2CCC(c3ccc4c(c3)C(=O)N(C3CCC(=O)NC3=O)C4=O)CC2)CC1 (stereo not drawn) [Compound 77, 5-(1-(4-(4-amino-3-(4-phenoxyphenyl)-1H-pyrazolo[3,4-d]pyrimidin-1-yl)piperidine-1-carbonyl)piperidin-4-yl)-2-(2,6-dioxopiperidin-3-yl)isoindoline-1,3-dione] | > 50% | > 50 nM | > 10 µM | > 10 µM
3 | Nc1ncnc2c1c(-c1ccc(Oc3ccccc3)cc1)nn2C1CCN(C(=O)N2CCC(c3ccc4c(c3)CN(C3CCC(=O)NC3=O)C4=O)CC2)CC1 (stereo not drawn) [Compound 78, 3-(5-(1-(4-(4-amino-3-(4-phenoxyphenyl)-1H-pyrazolo[3,4-d]pyrimidin-1-yl)piperidine-1-carbonyl)piperidin-4-yl)-1-oxoisoindolin-2-yl)piperidine-2,6-dione] | > 50% | > 50 nM | > 10 µM | > 10 µM
4 | Nc1ncnc2c1c(-c1ccc(Oc3ccccc3)cc1)nn2C1CCN(C(=O)N2CCC(N3CCC(c4ccc5c(c4)C(=O)N(C4CCC(=O)NC4=O)C5=O)CC3)CC2)CC1 (stereo not drawn) [Compound 83, 5-(1′-(4-(4-amino-3-(4-phenoxyphenyl)-1H-pyrazolo[3,4-d]pyrimidin-1-yl)piperidine-1-carbonyl)-[1,4′-bipiperidin]-4-yl)-2-(2,6-dioxopiperidin-3-yl)isoindoline-1,3-dione] | > 75% | > 50 nM | > 10 µM | > 10 µM
5 | Nc1ncnc2c1c(-c1ccc(Oc3ccccc3)cc1)nn2C1CCN(C(=O)N2CCC(N3CCC(c4ccc5c(c4)CN(C4CCC(=O)NC4=O)C5=O)CC3)CC2)CC1 (stereo not drawn) [Compound 84, 3-(5-(1′-(4-(4-amino-3-(4-phenoxyphenyl)-1H-pyrazolo[3,4-d]pyrimidin-1-yl)piperidine-1-carbonyl)-[1,4′-bipiperidin]-4-yl)-1-oxoisoindolin-2-yl)piperidine-2,6-dione] | > 75% | > 50 nM | > 10 µM | > 10 µM
6 | Nc1ncnc2c1c(-c1ccc(Oc3ccccc3)cc1)nn2C1CCN(C(=O)N2CCN(CCN3CCN(c4ccc5c(c4)CN(C4CCC(=O)NC4=O)C5=O)CC3)CC2)CC1 (stereo not drawn) [Compound 96, 3-(5-(4-(2-(4-(4-(4-amino-3-(4-phenoxyphenyl)-1H-pyrazolo[3,4-d]pyrimidin-1-yl)piperidine-1-carbonyl)piperazin-1-yl)ethyl)piperazin-1-yl)-1-oxoisoindolin-2-yl)piperidine-2,6-dione] | > 90% | 10 to 50 nM | 1 to 10 µM | 1 to 10 µM
7 | Nc1ncnc2c1c(-c1ccc(Oc3ccccc3)cc1)nn2C1CCN(C(=O)N2CCN(CCC3CCN(c4ccc5c(c4)C(=O)N(C4CCC(=O)NC4=O)C5=O)CC3)CC2)CC1 (stereo not drawn) [Compound 97, 5-(4-(2-(4-(4-(4-amino-3-(4-phenoxyphenyl)-1H-pyrazolo[3,4-d]pyrimidin-1-yl)piperidine-1-carbonyl)piperazin-1-yl)ethyl)piperidin-1-yl)-2-(2,6-dioxopiperidin-3-yl)isoindoline-1,3-dione] | > 90% | 10 to 50 nM | 1 to 10 µM | 1 to 10 µM
8 | Nc1ncnc2c1c(-c1ccc(Oc3ccccc3)cc1)nn2C1CCN(C(=O)N2CCN(CCC3CCN(c4ccc5c(c4)CN(C4CCC(=O)NC4=O)C5=O)CC3)CC2)CC1 (stereo not drawn) [Compound 98, 3-(5-(4-(2-(4-(4-(4-amino-3-(4-phenoxyphenyl)-1H-pyrazolo[3,4-d]pyrimidin-1-yl)piperidine-1-carbonyl)piperazin-1-yl)ethyl)piperidin-1-yl)-1-oxoisoindolin-2-yl)piperidine-2,6-dione] | > 90% | 10 to 50 nM | 1 to 10 µM | 1 to 10 µM

More lines, main results first:

Row | Dmax (BTK) | DC50 (BTK) | SMILES | IC50 (Mino cells) | IC50 (JeKo-1 cells)
9 | > 90% | 10 to 50 nM | Nc1ncnc2c1c(-c1ccc(Oc3ccccc3)cc1)nn2[C@@H]1CCCN(C(=O)N2CCC(CCN3CCC(c4ccc5c(c4)CN(C4CCC(=O)NC4=O)C5=O)CC3)CC2)C1 (stereo partly drawn) [Compound 74, 3-(5-(1-(2-(1-((R)-3-(4-amino-3-(4-phenoxyphenyl)-1H-pyrazolo[3,4-d]pyrimidin-1-yl)piperidine-1-carbonyl)piperidin-4-yl)ethyl)piperidin-4-yl)-1-oxoisoindolin-2-yl)piperidine-2,6-dione] | > 10 µM | > 10 µM
10 | > 75% | 10 to 50 nM | Nc1ncnc2c1c(-c1ccc(Oc3ccccc3)cc1)nn2C1CCN(C(=O)N2CCC(N3CCN(c4ccc5c(c4)CN(C4CCC(=O)NC4=O)C5=O)CC3)CC2)CC1 (stereo not drawn) [Compound 82, 3-(5-(4-(1-(4-(4-amino-3-(4-phenoxyphenyl)-1H-pyrazolo(3,4-d)pyrimidin-1-yl)piperidine-1-carbonyl)piperidin-4-yl)piperazin-1-yl)-1-oxoisoindolin-2-yl)piperidine-2,6-dione] | > 10 µM | > 10 µM
11 | > 90% | 10 to 50 nM | Nc1ncnc2c1c(-c1ccc(Oc3ccccc3)cc1)nn2C1CCN(C(=O)N2CCN(CC3CCN(c4ccc5c(c4)C(=O)N(C4CCC(=O)NC4=O)C5=O)CC3)CC2)CC1 (stereo not drawn) [Compound 87, 5-(4-((4-(4-(4-amino-3-(4-phenoxyphenyl)-1H-pyrazolo[3,4-d]pyrimidin-1-yl)piperidine-1-carbonyl)piperazin-1-yl)methyl)piperidin-1-yl)-2-(2,6-dioxopiperidin-3-yl)isoindoline-1,3-dione] | 1 to 10 µM | < 1 µM
12 | > 90% | 10 to 50 nM | Nc1ncnc2c1c(-c1ccc(Oc3ccccc3)cc1)nn2C1CCN(C(=O)N2CCN(CC3CCN(c4ccc5c(c4)CN(C4CCC(=O)NC4=O)C5=O)CC3)CC2)CC1 (stereo not drawn) [Compound 88, 3-(5-(4-((4-(4-(4-amino-3-(4-phenoxyphenyl)-1H-pyrazolo[3,4-d]pyrimidin-1-yl)piperidine-1-carbonyl)piperazin-1-yl)methyl)piperidin-1-yl)-1-oxoisoindolin-2-yl)piperidine-2,6-dione] | < 1 µM | < 1 µM
13 | > 90% | 10 to 50 nM | Nc1ncnc2c1c(-c1ccc(Oc3ccccc3)cc1)nn2C1CCN(C(=O)N2CCC(CC3CCN(c4ccc5c(c4)C(=O)N(C4CCC(=O)NC4=O)C5=O)CC3)CC2)CC1 (stereo not drawn) [Compound 89, 5-(4-((1-(4-(4-amino-3-(4-phenoxyphenyl)-1H-pyrazolo[3,4-d]pyrimidin-1-yl)piperidine-1-carbonyl)piperidin-4-yl)methyl)piperidin-1-yl)-2-(2,6-dioxopiperidin-3-yl)isoindoline-1,3-dione] | < 1 µM | 1 to 10 µM
14 | > 90% | < 10 nM | Nc1ncnc2c1c(-c1ccc(Oc3ccccc3)cc1)nn2C1CCN(C(=O)N2CCC(CC3CCN(c4ccc5c(c4)CN(C4CCC(=O)NC4=O)C5=O)CC3)CC2)CC1 (stereo not drawn) [Compound 90, 3-(5-(4-((1-(4-(4-amino-3-(4-phenoxyphenyl)-1H-pyrazolo[3,4-d]pyrimidin-1-yl)piperidine-1-carbonyl)piperidin-4-yl)methyl)piperidin-1-yl)-1-oxoisoindolin-2-yl)piperidine-2,6-dione] | 1 to 10 µM | 1 to 10 µM
15 | > 90% | < 10 nM | Nc1ncnc2c1c(-c1ccc(Oc3ccccc3)cc1)nn2C1CCN(C(=O)N2CCC(CN3CCC(c4ccc5c(c4)C(=O)N(C4CCC(=O)NC4=O)C5=O)CC3)CC2)CC1 (stereo not drawn) [Compound 91, 5-(1-((1-(4-(4-amino-3-(4-phenoxyphenyl)-1H-pyrazolo[3,4-d]pyrimidin-1-yl)piperidine-1-carbonyl)piperidin-4-yl)methyl)piperidin-4-yl)-2-(2,6-dioxopiperidin-3-yl)isoindoline-1,3-dione] | 1 to 10 µM | 1 to 10 µM
16 | > 90% | < 10 nM | Nc1ncnc2c1c(-c1ccc(Oc3ccccc3)cc1)nn2C1CCN(C(=O)N2CCC(CN3CCC(c4ccc5c(c4)CN(C4CCC(=O)NC4=O)C5=O)CC3)CC2)CC1 (stereo not drawn) [Compound 92, 3-(5-(1-((1-(4-(4-amino-3-(4-phenoxyphenyl)-1H-pyrazolo[3,4-d]pyrimidin-1-yl)piperidine-1-carbonyl)piperidin-4-yl)methyl)piperidin-4-yl)-1-oxoisoindolin-2-yl)piperidine-2,6-dione] | < 1 µM | 1 to 10 µM
17 | > 90% | 10 to 50 nM | Nc1ncnc2c1c(-c1ccc(Oc3ccccc3)cc1)nn2C1CCN(C(=O)N2CCC(CCN3CCN(c4ccc5c(c4)CN(C4CCC(=O)NC4=O)C5=O)CC3)CC2)CC1 (stereo not drawn) [Compound 94, 3-(5-(4-(2-(1-(4-(4-amino-3-(4-phenoxyphenyl)-1H-pyrazolo[3,4-d]pyrimidin-1-yl)piperidine-1-carbonyl)piperidin-4-yl)ethyl)piperazin-1-yl)-1-oxoisoindolin-2-yl)piperidine-2,6-dione] | < 1 µM | 1 to 10 µM
18 | > 90% | 10 to 50 nM | Nc1ncnc2c1c(-c1ccc(Oc3ccccc3)cc1)nn2C1CCN(C(=O)N2CCN(CCN3CCN(c4ccc5c(c4)C(=O)N(C4CCC(=O)NC4=O)C5=O)CC3)CC2)CC1 (stereo not drawn) [Compound 95, 5-(4-(2-(4-(4-(4-amino-3-(4-phenoxyphenyl)-1H-pyrazolo[3,4-d]pyrimidin-1-yl)piperidine-1-carbonyl)piperazin-1-yl)ethyl)piperazin-1-yl)-2-(2,6-dioxopiperidin-3-yl)isoindoline-1,3-dione] | 1 to 10 µM | < 1 µM
